Among the test systems are DU-145 prostate; SF-268 CNS; TK-10 renal; SK-MEL-28 melanoma; HOP-92 NSCLC; NCI-H23 lung; SK-MEL-5 melanoma; UACC-257 melanoma; CAKI-1 renal; SNB-75 CNS.
Assay in all cases: DTP human tumour cell line panel, 48 h

These results are taken from PubChem BioAssay (NCI).

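Test compounds were applied to cells in 96-well plates for 48 hours at 5 doses. TGI is the concentration that stops growth completely.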

For orientation: TGI means the concentration giving total growth inhibition. As for `CCOC(=O)Cn1c(C)nc2nn(Cc3ccccc3)cc2c1=O`, the TGI with DU-145 prostate, in the assay on SF-268 CNS, with TK-10 renal, in the assay on SK-MEL-28 melanoma, in the assay with HOP-92 NSCLC and with NCI-H23 lung was above 100 µM each time. The compound also yielded a total growth inhibition concentration (TGI) with SK-MEL-5 melanoma above 100 µM.

Turning to `O=C(O)c1cc2c(cc1CC(Cc1ccccc1)C(=O)O)CCC2` (stereo unspecified), the TGI with DU-145 prostate, in the assay with SF-268 CNS, in the assay on TK-10 renal, with UACC-257 melanoma, in the assay with CAKI-1 renal and with SK-MEL-28 melanoma was above 100 µM throughout. Besides, the TGI in the assay with SNB-75 CNS, with NCI-H23 lung and in the assay on SK-MEL-5 melanoma was above 100 µM throughout.

For `O/N=C1/CCCCC1NO` (stereo unspecified), the TGI in the assay with DU-145 prostate, with SF-268 CNS, in the assay on TK-10 renal, in the assay with UACC-257 melanoma, in the assay with CAKI-1 renal and in the assay with SK-MEL-28 melanoma was above 100 µM throughout. Moreover, the TGI with SNB-75 CNS, with NCI-H23 lung and with SK-MEL-5 melanoma was above 100 µM in each case.

Consider `CC(=O)Oc1ccc(-c2c(OC(C)=O)c(OC(C)=O)c(-c3ccc(OC(C)=O)c(OC(C)=O)c3)c(OC(C)=O)c2OC(C)=O)cc1`, for which the TGI is 29.8 µM with DU-145 prostate; 32.8 µM in the assay on SF-268 CNS; 29.6 µM in the assay with TK-10 renal; 29.1 µM in the assay with UACC-257 melanoma; 51.6 µM with CAKI-1 renal; 28.4 µM in the assay on SK-MEL-28 melanoma. In addition, the TGI in the assay on SNB-75 CNS is 31.9 µM; in the assay with NCI-H23 lung, 38 µM; with SK-MEL-5 melanoma, 25.5 µM.

For the compound `O=c1[nH]nc(Cc2ccc([N+](=O)[O-])cc2)[nH]1`, the concentration for total growth inhibition (TGI) in the assay with DU-145 prostate, in the assay on SF-268 CNS, with TK-10 renal, in the assay with UACC-257 melanoma, in the assay with CAKI-1 renal and in the assay on SK-MEL-28 melanoma was above 100 µM throughout. The TGI in the assay on SNB-75 CNS, in the assay with NCI-H23 lung and in the assay with SK-MEL-5 melanoma was above 100 µM each time.

With `Cc1cn(C2CC(O)C(Cn3cc(Cn4nc(Br)c(=O)[nH]c4=O)nn3)O2)c(=O)[nH]c1=O` (stereo unspecified), the total growth inhibition concentration (TGI) in the assay on DU-145 prostate, with SF-268 CNS, in the assay with TK-10 renal, in the assay with UACC-257 melanoma, in the assay with CAKI-1 renal and in the assay on SK-MEL-28 melanoma was above 100 µM each time. Also, the TGI with SNB-75 CNS, in the assay on NCI-H23 lung and in the assay on SK-MEL-5 melanoma was above 100 µM in each case.

Take `O=C(O)C1(Cc2ccc3c(c2)CCC3)Cc2cc3c(cc2C1)CCC3`: the total growth inhibition concentration (TGI) in the assay with DU-145 prostate, in the assay on SF-268 CNS, in the assay with TK-10 renal, in the assay with SK-MEL-28 melanoma, in the assay with HOP-92 NSCLC and in the assay on SNB-75 CNS was above 100 µM each time. The compound also came in with a TGI with SK-MEL-5 melanoma above 100 µM.

For the compound `COC(=O)C[C@H]1[C@]2(C)C3=C(C)[C@H](c4ccoc4)CC3O[C@@H]2[C@@H]2OC(=O)[C@]3(C)CCC(=O)[C@@]1(C)[C@@H]23` (stereo partly specified), the concentration for total growth inhibition (TGI) in the assay with DU-145 prostate, in the assay with SF-268 CNS, in the assay with UACC-257 melanoma, in the assay on CAKI-1 renal, in the assay on SK-MEL-28 melanoma and in the assay on HOP-92 NSCLC was above 100 µM each time. The TGI with SNB-75 CNS, with NCI-H23 lung and with SK-MEL-5 melanoma was above 100 µM in each case.

On to `Cc1cccc(/C=N/NC(=S)NC(C)(C)C)n1`, for which the TGI in the assay with DU-145 prostate, in the assay with SF-268 CNS, with TK-10 renal, in the assay on UACC-257 melanoma, in the assay on CAKI-1 renal and with SK-MEL-28 melanoma was above 100 µM throughout. Further, the concentration for total growth inhibition (TGI) in the assay with SNB-75 CNS, with NCI-H23 lung and in the assay on SK-MEL-5 melanoma was above 100 µM each time.

Regarding `NC(=O)Nc1n[nH]c(-c2ccccc2)n1`, the TGI in the assay on DU-145 prostate, in the assay with SF-268 CNS, with TK-10 renal, with UACC-257 melanoma, in the assay on CAKI-1 renal and in the assay on SK-MEL-28 melanoma was above 100 µM each time. For the same compound, the TGI in the assay on SNB-75 CNS, with NCI-H23 lung and in the assay on SK-MEL-5 melanoma was above 100 µM throughout.

Turning to `CC(C)(C)OC(=O)N[C@@H](Cc1ccccc1)C(=O)N1CC[C@@H](C(=O)N2[C@H]3CC4CC[C@@]3(CS2(=O)=O)C4(C)C)N1`, the total growth inhibition concentration (TGI) with DU-145 prostate, with SF-268 CNS, in the assay with UACC-257 melanoma, with CAKI-1 renal, in the assay on SK-MEL-28 melanoma and in the assay on HOP-92 NSCLC was above 100 µM throughout. The TGI was above 100 µM in the assay on SNB-75 CNS, above 100 µM with NCI-H23 lung and 75 µM in the assay on SK-MEL-5 melanoma.

As to `COc1cccc(C2c3cc4c(cc3OC(N3CCOCC3)C2C)OCO4)c1` (stereo unspecified), the TGI in the assay on DU-145 prostate is above 100 µM; in the assay with SF-268 CNS, 85.5 µM; with UACC-257 melanoma it was above 100 µM; in the assay on HOP-92 NSCLC, 85.3 µM; with SNB-75 CNS, above 100 µM; with SK-MEL-5 melanoma, 15.6 µM.
